# Key:
# [1] = Solubility of DIM in individual excipients (incremental addition, microscopic observation); type: physicochemical
# Experimental: The first step in this development process was the testing of a variety of excipients chosen as potentially active in solubilizing DIM. […] The method involved weighing of approximately 2 grams of each of the liquid excipients into a small vial. Subsequently, a small amount of DIM was added and the mixture was shaken.
# The method involved weighing of approximately 2 grams of each of the liquid excipients into a small vial. Subsequently, a small amount of DIM was added and the mixture was shaken. […] Continued testing of acceptable oil solvents for, e.g., nutritional supplement, self-emulsifying formulations using DIM as a representative DIM-related indole active ingredient included testing of the following oils: […]
# [2] = Particle size after dispersion and spontaneous emulsion formation in water (laser light scattering); type: physicochemical; details: Malvern Mastersizer, DIM as supplied by BioResponse
# Experimental: Each of the formulations were tested by dispersing approximately 1 gram of the candidate formulation in 200 mL of deionized water at approximately 37° C. with slow stirring of a magnetic spin bar in a 1 L beaker. Within five minutes of the addition, sufficient mixture was added to a Malvern Mastersizer dynamic laser light scattering instrument to satisfy the obscuration of the laser beams needed for measurement.
# Some of the formulations were formulated with and without Soluplus and with and without phosphatidyl choline-rich isolates from lecithin. The formulations were tested by dispersing approximately 1 gram of the candidate formulation in 200 mL of deionized water at approximately 37° C. with slow stirring of a magnetic spin bar in a 1 L beaker. Within five minutes of the addition, sufficient mixture was added to a Malvern Mastersizer dynamic laser light scattering instrument to satisfy the obscuration of the laser beams needed for measurement.
# The dispersions of Formulations R and T were tested for particle size by laser diffraction following dispersion and spontaneous emulsion formation in water. […] The particle size determined is expressed as diameter in microns (μ) in the following chart, and comparison is made to other nutritional and pharmaceutical formulations described herein: […]
# [3] = Single dose human oral bioavailability study (plasma DIM by LC-MS/MS); type: in vivo; details: both sexes
# Experimental: Study Design: Single Center, Single-Blind, Single Dose, Oral Bioavailability Study, with Subject Crossover.
# In Part I of the Study, a treatment group was administered a 300 mg dose of DIM from BR-DIM or a 300 mg dose of DIM from crystalline DIM on the first study day, followed by crossover to the other DIM formulation on the second study day, at least 14 days following the first treatment. 3 subjects were given crystalline DIM, 4 subjects were given BR-DIM.
# In Part II of the Study, five individuals, four of whom participated in Part I of the Study, were administered a 300 mg dose of DIM from DIM SMEDDS Formulation D. Testing of DIM SMEDDS formula D took place on one day with 5 subjects. The subjects were all healthy, adult volunteers, both male and female, not consuming DIM containing supplements and in a fasting state on study days. Volunteers agreed not to consume cruciferous vegetable for one week prior to study days. Study groups consisted of 3, 4, or 5 individuals.
# A baseline blood specimen was collected. For Part I of the Study, subjects ingested matching, opaque gelatin capsules containing either crystalline DIM (300 mg) or BR-DIM providing 300 mg DIM. Then, the subjects provided 8 cc samples of blood was collected at Baseline, and 1 hr, 2 hr, 3 hr, 4 hr, and 6 hr after administration of each of the formulations. A standard small meal was given at 4 hrs.
# A baseline blood specimen was collected. Subjects ingested opaque gelatin capsules containing SEDDS DIM formulation (in particular, Formulation D described above) providing 300 mg dissolved DIM. The DIM SMEDDS formulation was provided in 3 hard gelatin capsules each containing 100 mg of DIM. Subsequently, 8 cc samples of blood were obtained and 30 cc samples of urine will be obtained according to the following chart. Blood was collected at Baseline, and 1 hr, 2 hr, 3 hr, 4 hr, and 6 hr after administration of the drug. A standard small meal was given at 4 hrs.
# Blood sample handling: Within 15 minutes, plasma was centrifuged and frozen, stored on dry ice, then stored at minus 80 until assayed.
# Pharmacokinetic evaluation was performed for all subjects. Blood samples (˜8 ml for each) were collected at 0 (baseline), 1, 2, 3, 4, and 6 hours after the oral administration of the dose of DIM, BR-DIM, or DIM SMEDDS formulation (i.e., Formulation D described above). Within 15 minutes of the collection, the blood samples were centrifuged at 4° C., at 2000 g for 10 minutes, and plasma was collected immediately after centrifugation and transferred to the screw-cap polypropylene cryogenic tubes. The plasma samples were stored at −80° C. until analysis.
# The concentrations of DIM in human plasma samples were determined by a validated high-performance liquid chromatography with tandem mass spectrometry (LC-MS/MS) method. Briefly, to 50 μl human plasma, 100 μl of 2% formic acid in methanol (containing 1 μg/mL internal standard zileuton) was added to precipitate proteins. The mixture was vortex-mixed for 1 minute, and centrifuged at 14,000 g at 4° C. for 10 minutes. The supernatant was collected and 10 μl was injected into the LC-MS/MS system. Chromatographic analysis was performed using a Waters model 2690 separation system (Milford, Mass., USA). The analytes were separated on a Waters X-Terra MS column (150 mm×2.1 mm i.d.) using a mobile phase consisting of methanol/0.45% formic acid (70:30, v/v), and isocratic flow at 0.2 mL/min. The analytes were monitored by a Waters Micromass triple quadrupole mass spectrometer (Milford, Mass., USA) using an electrospray probe in the positive ionization mode operating at a cone voltage of 23V for DIM and 13V for the internal standard zileuton. Samples were introduced into the ionization source through a heated nebulized probe (350° C.). The collision energy was set at 30 eV and 9 eV for DIM and zileuton, respectively. The transitions at 129.9>76.8 and 237.1>161.1 were monitored for DIM and zileuton, respectively. […]
# [4] = healthy humans, single oral dose 300 mg DIM, averaged
smiles,measurement,setting,value
"c1ccc2c(Cc3c[nH]c4ccccc34)c[nH]c2c1 [DIM, 3,3′-diindolylmethane]",DIM Solubility %,[1]; in Black Cumin oil,2%
same,DIM Solubility,[1]; in Capryol 90 (Propylene glycol monocaprylate),7%
same,DIM Solubility,[1]; in Capryol PGMC (Propylene glycol monocaprylate),8%
same,DIM Solubility,[1]; in Crodasol HS-HP (monoesters and diesters of 12-hydroxystearic acid and macrogols),14%
same,DIM Solubility,[1]; in Gelucire 44/14 (Lauroyl polyoxyl-32 glycerides),19%
same,DIM Solubility,[1]; in Labrafac AC WL1349 (Medium-chain triglycerides),3%
same,DIM Solubility,[1]; in Labrafac PG (Propylene glycol di-caprylate),4.5%^
same,DIM Solubility,[1]; in Labrafil M1944CS (Oleoyl polyoxyl-6 glycerides),5%
same,DIM Solubility,[1]; in Labrasol ALF (Caprylocaproyl polyoxyl-8 glycerides),25%
same,DIM Solubility,[1]; in Lauroylglycol 90 (Propylene glycol monolaurate),3%
same,DIM Solubility,[1]; in Maisine 35-1 (Glyceryl monolinoleate),2%
same,DIM Solubility,[1]; in Peceol (Glycerol monooleate),2%
same,DIM Solubility,[1]; in Peppermint oil,4%
same,DIM Solubility,[1]; in Plurol Oleique (Glycerol mono/di-oleate),5%
same,DIM Solubility,[1]; in Polysorbate 80,12%
same,DIM Solubility,[1]; in Propylene glycol,2%
same,DIM Solubility %,[1]; in Rosemary Oil,6%
same,DIM Solubility,[1]; in Transcutol (Diethylene glycol monoethyl ether),>25%
same,ability of oil to dissolve DIM,[1]; olive oil or sunflower oil,very low ability to dissolve DIM
same,Particle Size Diameter after Dispersion in Water (nm),[2],"3,010^1^ nm"
same,AUC(0-inf),[3]; [4],98.5 ng·h/mL
same,Cmax,[3]; [4],18.1 ng/mL
same,Tmax,[3]; [4],1.7 h
same,half-life,[3]; [4],2.2 h
same,concentration at 0 h,"[3]; time 0 hour (baseline), 300 mg oral, read-out: averaged plasma level of DIM",0 ng/mL
same,concentration at 1 h,"[3]; time 1 hour, 300 mg oral, read-out: averaged plasma level of DIM",17.8 ng/mL
same,concentration at 2 h,"[3]; time 2 hour, 300 mg oral, read-out: averaged plasma level of DIM",16.7 ng/mL
same,concentration at 3 h,"[3]; time 3 hour, 300 mg oral, read-out: averaged plasma level of DIM",10.6 ng/mL
same,concentration at 4 h,"[3]; time 4 hour, 300 mg oral, read-out: averaged plasma level of DIM",10 ng/mL
same,concentration at 6 h,"[3]; time 6 hour, 300 mg oral, read-out: averaged plasma level of DIM",5.8 ng/mL
same,AUC,"[3]; time zero to infinity, 300 mg oral",98.5 ng·h/mL

# — patent US10441569B2, “Self-emulsifying formulations of DIM-related indoles” (BioResponse, L.L.C., priority 2015, dated 2019)
